# Measurements: ChEMBL document CHEMBL1201862, “PubChem BioAssay data set” (2004)
# The source made the active and inactive calls.
# Key:
# [1] = molecular target: SUMO-activating enzyme (Homo sapiens, UniProt Q9UBT2); test: inhibitors of in vitro SUMOylation cascade, primary screen, biochemical, HTRF, uHTS (AID 2006); type: protein-complex assay
# [2] = molecular target: T1, Mannose-6-phosphate isomerase (Homo sapiens, UniProt P34949); test: human PMI inhibitors, high substrate, primary screen, biochemical, fluorescence intensity, high mannose 6-phosphate (AID 1220)
# T1 sequence (P34949 whole entry): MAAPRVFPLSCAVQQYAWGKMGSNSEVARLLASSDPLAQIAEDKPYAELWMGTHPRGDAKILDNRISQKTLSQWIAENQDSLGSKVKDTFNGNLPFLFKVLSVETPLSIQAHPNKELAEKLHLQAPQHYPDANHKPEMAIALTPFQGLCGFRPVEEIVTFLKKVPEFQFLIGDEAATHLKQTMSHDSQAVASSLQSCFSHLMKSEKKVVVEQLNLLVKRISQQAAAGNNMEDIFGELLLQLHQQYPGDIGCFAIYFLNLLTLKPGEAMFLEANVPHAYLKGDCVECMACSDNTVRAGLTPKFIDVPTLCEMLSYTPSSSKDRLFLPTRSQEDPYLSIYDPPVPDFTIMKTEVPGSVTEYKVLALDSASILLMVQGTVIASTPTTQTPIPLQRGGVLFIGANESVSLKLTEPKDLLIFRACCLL
# [3] = molecular target: T2, Runt-related transcription factor 1/Core-binding factor subunit beta (Homo sapiens, UniProt Q01196+Q13951); test: inhibitors of RUNX1 Runt–CBFb-SMMHC binding, biochemical, TR-FRET (AID 1438); type: protein assay
# T2 sequence (Q01196 whole entry, the tested form may be a part): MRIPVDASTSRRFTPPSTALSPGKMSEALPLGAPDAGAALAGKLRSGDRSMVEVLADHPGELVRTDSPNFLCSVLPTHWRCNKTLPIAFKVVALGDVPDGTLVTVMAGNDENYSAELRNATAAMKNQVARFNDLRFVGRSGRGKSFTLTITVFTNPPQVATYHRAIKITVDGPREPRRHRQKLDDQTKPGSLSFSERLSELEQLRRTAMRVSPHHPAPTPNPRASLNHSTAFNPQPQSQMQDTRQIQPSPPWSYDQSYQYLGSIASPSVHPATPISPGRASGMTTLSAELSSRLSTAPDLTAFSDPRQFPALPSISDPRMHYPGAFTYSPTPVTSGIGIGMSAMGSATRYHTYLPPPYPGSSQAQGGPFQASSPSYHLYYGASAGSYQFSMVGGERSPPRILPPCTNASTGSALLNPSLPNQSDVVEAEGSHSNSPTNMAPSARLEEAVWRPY
# T2 sequence (Q13951 whole entry, the tested form may be a part): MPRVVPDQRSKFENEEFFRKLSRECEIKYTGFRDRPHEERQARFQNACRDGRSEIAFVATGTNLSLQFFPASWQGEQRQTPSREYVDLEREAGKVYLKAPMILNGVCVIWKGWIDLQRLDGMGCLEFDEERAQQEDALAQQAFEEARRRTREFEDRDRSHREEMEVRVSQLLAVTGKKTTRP
# [4] = molecular target: T2, Runt-related transcription factor 1/Core-binding factor subunit beta; test: inhibitors of RUNX1 Runt–CBFb-SMMHC binding, primary screen, biochemical, FRET, Cerulean-Runt, Venus-CBFb-SMMHC, uHTS (AID 1434); type: protein assay;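 further: partner is the CBFb-SMMHC leukemia fusion protein rather than wild-type CBFb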
# [5] = molecular target: T3, Voltage-gated N-type calcium channel alpha-1B subunit/Amyloid beta A4 precursor protein-binding family A member 1 (Homo sapiens, UniProt Q00975+Q02410); type: protein assay
# [6] = molecular target: T3, Voltage-gated N-type calcium channel alpha-1B subunit/Amyloid beta A4 precursor protein-binding family A member 1; type: protein assay; remark: listed apart in the source
# [7] = molecular target: T4, Corticotropin-releasing factor receptor 2/Corticotropin-releasing factor-binding protein (Homo sapiens, UniProt P24387+Q13324); test: Dose Response confirmation of uHTS hits for small molecule antagonists of the CRF-binding protein and CRF-R2 receptor complex.; type: functional; settings: read-out: IC50_Mean
# T4 sequence (Q13324 whole entry): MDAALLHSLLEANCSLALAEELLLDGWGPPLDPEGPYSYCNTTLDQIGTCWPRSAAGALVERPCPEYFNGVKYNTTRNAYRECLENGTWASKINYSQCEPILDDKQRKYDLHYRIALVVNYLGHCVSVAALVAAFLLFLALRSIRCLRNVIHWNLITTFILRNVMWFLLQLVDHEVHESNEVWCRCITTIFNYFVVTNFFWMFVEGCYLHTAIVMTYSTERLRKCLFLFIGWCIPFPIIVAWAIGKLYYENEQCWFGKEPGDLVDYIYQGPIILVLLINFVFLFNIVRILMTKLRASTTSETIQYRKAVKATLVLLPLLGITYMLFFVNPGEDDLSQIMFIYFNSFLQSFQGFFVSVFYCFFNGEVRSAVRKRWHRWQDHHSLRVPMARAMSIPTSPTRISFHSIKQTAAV
# T4 sequence (P24387 whole entry): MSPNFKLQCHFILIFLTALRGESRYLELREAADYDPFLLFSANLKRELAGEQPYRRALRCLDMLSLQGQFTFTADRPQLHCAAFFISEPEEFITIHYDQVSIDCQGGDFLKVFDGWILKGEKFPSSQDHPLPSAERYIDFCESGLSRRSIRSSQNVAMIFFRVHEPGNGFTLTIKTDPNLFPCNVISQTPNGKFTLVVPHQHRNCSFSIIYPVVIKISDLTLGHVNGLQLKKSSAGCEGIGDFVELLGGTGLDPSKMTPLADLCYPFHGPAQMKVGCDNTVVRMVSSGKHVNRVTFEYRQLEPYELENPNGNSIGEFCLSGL
# [8] = cytotoxicity in HEK-293T cells, dose response, cytotoxicity control for TCR NF-kB inhibitor project, luminescence, T-cell screen hits (AID 489026); type: functional, cell-based;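 further: cells exposed to compound about 14 hours before the viability readout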
# [9] = tested on: Streptococcus sp. 'group A'; test: growth inhibition of control SK(-) GAS strain, dose response, counter-screen for streptokinase expression inhibitor project, luminescence, kanamycin, BacTiterGlo, confirmation (AID 1900); type: functional, organism-based
# [10] = molecular target: COUP transcription factor 2 (Homo sapiens, UniProt P24468); test: Luminescence-based cell-based high throughput dose response assay to identify inhibitors of COUP-TFII (NR2F2).; type: functional;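 further: HEK293 cells transiently cotransfected with COUP-TFII expression vector and reporter; luciferase reporter luminescence driven by COUP-TFII from the pX2-168 reporter plasmid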
# [11] = tested on: Streptococcus; test: Group A Streptococcus viability loss, dose response, counter-screen for streptokinase expression inhibitor project, luminescence, BacTiterGlo (AID 1915); type: functional, organism-based;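 further: potency for reduction of bacterial viability or growth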
# [12] = molecular target: T4, Corticotropin-releasing factor receptor 2/Corticotropin-releasing factor-binding protein; test: activators of CRF receptor 2 with binding protein – uHTS hits, confirmation (AID 602473); type: functional; settings: read-out: EC50_Mean
# [13] = molecular target: T5, Streptokinase A (Streptococcus pyogenes serotype M1, UniProt P10520); test: S. pyogenes streptokinase expression inhibitors, potency, dose response, plasminogen activation absorbance, OD405 (AID 1914); type: functional, Streptococcus pyogenes M1 GAS;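 further: secreted streptokinase activity via plasminogen activation per viability signal from cell pellet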
# T5 sequence (P10520 whole entry): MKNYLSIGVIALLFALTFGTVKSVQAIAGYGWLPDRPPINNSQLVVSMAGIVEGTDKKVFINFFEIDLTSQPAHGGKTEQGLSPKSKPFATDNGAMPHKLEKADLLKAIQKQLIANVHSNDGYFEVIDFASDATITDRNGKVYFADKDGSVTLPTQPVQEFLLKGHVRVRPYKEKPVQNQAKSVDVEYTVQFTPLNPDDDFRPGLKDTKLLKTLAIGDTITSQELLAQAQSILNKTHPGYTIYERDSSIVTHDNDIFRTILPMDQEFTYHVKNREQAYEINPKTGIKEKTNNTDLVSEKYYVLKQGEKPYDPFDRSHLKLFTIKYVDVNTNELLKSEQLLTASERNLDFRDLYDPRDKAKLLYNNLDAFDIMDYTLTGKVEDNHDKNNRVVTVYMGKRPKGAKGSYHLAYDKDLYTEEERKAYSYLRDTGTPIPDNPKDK
# [14] = molecular target: T6, CAAX prenyl protease 2 (Saccharomyces cerevisiae S288c, UniProt Q03530); type: biochemical
# T6 sequence (Q03530 whole entry): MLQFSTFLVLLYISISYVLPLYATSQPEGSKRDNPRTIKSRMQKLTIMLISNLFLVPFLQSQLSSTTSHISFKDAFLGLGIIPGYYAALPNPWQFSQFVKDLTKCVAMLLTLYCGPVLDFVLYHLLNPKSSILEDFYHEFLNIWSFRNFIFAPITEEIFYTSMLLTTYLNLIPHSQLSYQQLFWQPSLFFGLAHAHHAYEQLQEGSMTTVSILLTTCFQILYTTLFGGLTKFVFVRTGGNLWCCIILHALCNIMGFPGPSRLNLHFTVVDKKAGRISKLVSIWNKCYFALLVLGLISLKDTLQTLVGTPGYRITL
# [15] = molecular target: Trypsin (Sus scrofa, UniProt P00761); test: porcine trypsin inhibitors, dose response, selectivity assay for Rce1 protease inhibitor project, biochemical, quenched peptide fluorescence, cherry-pick (AID 488789)
# Chain of Trypsin (P00761 whole entry): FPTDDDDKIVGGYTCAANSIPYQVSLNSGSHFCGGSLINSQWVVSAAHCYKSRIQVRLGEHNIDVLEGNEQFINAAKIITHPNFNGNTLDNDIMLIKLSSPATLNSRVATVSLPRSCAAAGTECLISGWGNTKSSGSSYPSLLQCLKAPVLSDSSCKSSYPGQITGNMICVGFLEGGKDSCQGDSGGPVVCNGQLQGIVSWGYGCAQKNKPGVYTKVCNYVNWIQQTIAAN
# [16] = growth suppression of PTEN-null colon cells, dose response, cell-based, HCT116 PTEN knockout (AID 1047); type: functional;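 further: HCT116 colon tumor cells with PTEN knocked out; cells exposed to compound for 60 hours before readout; potency for loss of cell viability measured by luminescence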
# [17] = growth suppression of beta-catenin-knockout colon cells, dose response, cell-based, HCT116, human colon tumor (AID 1045); type: functional;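 further: HCT116 colon tumor cells with beta catenin knocked out; cells exposed to compound for 60 hours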
# [18] = molecular target: T7, Hexokinase HKDC1 (Homo sapiens, UniProt Q2TB90); test: HKDC1 hexokinase inhibitors, dose response, biochemical, W721R variant (AID 504729); type: functional
# T7 sequence (Q2TB90 whole entry): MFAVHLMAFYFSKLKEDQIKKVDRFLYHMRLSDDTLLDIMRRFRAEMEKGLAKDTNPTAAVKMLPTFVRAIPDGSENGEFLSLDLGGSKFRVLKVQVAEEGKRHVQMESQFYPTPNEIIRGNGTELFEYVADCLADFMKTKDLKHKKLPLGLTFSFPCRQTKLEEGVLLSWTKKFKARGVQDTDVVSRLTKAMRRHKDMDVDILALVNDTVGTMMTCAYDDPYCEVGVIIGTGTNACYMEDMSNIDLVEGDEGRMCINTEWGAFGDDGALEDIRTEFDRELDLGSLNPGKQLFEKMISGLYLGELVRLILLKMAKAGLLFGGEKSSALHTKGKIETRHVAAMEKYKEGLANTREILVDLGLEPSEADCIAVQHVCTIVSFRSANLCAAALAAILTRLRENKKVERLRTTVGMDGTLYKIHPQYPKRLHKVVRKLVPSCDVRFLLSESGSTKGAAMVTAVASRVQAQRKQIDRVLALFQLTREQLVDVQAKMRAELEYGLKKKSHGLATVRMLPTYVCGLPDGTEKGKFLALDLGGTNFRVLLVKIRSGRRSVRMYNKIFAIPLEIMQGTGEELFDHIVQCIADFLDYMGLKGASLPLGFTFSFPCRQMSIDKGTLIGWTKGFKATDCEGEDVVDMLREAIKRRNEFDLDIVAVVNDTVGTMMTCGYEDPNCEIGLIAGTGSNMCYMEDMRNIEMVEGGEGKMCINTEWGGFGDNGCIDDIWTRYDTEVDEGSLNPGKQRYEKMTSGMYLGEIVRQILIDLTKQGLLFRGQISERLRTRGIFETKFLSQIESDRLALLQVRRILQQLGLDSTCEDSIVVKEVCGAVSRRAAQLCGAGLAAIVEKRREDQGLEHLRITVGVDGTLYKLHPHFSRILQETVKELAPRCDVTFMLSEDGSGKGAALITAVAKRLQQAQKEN
# [19] = molecular target: Beta Lactamase (Pseudomonas aeruginosa, UniProt Q932Y6); test: beta-lactamase reporter inhibitor potency, dose response, artefact control for NOD2-RIPK2 interaction inhibitor project, BLA reporter cells, FRET fluorescence (AID 651552); type: functional, cell-based
# Chain of Beta Lactamase (Q932Y6 whole entry, the tested form may be a part): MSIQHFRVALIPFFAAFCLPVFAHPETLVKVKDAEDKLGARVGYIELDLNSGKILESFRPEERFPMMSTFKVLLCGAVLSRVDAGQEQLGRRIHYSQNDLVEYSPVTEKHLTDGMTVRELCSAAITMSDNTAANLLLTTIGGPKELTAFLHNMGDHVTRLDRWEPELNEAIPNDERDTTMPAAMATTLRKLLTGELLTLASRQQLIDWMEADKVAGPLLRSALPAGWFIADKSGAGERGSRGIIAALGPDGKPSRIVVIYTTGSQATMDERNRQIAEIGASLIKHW
# [20] = Fluorescence-based cell-based high throughput dose response assay for inhibitors of the interaction of nucleotide-binding oligomerization domain containing 2 (NOD2) and the receptor-interacting serine-threonine kinase 2 (RIPK2).; type: functional; settings: Homo sapiens
# [21] = molecular target: Coagulation factor XII (Homo sapiens, UniProt P00748); type: functional;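 further: activated factor XIIa alpha cleaving a fluorogenic AMC peptide substrate; inhibitor potency from loss of enzyme activity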
# Chain of Coagulation factor XII (P00748 20-372 limits assumed): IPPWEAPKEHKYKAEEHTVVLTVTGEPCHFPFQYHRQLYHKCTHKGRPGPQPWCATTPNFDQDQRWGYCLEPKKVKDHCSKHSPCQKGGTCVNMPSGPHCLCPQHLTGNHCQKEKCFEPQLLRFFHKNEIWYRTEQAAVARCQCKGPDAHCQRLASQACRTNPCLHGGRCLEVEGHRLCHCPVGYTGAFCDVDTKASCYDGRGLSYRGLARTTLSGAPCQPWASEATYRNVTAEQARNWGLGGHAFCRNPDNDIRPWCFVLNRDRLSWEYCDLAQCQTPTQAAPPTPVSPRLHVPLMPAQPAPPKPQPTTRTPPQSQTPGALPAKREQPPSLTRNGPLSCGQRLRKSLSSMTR
# Chain of Coagulation factor XII (P00748 373-615 limits assumed): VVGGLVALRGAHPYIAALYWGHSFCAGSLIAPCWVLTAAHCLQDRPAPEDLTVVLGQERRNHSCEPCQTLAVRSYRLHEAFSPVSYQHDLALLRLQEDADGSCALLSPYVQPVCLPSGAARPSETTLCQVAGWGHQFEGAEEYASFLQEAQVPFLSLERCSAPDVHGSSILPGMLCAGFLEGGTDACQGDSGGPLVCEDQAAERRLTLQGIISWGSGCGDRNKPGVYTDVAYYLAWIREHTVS
# [22] = molecular target: Voltage-dependent T-type calcium channel subunit alpha-1H (Homo sapiens, UniProt O95180); test: Cav3.2 T-type channel inhibitors, cell-based, synthetic library set 1, calcium flux (AID 493022); type: functional
# Chain of Voltage-dependent T-type calcium channel subunit alpha-1H (O95180 whole entry): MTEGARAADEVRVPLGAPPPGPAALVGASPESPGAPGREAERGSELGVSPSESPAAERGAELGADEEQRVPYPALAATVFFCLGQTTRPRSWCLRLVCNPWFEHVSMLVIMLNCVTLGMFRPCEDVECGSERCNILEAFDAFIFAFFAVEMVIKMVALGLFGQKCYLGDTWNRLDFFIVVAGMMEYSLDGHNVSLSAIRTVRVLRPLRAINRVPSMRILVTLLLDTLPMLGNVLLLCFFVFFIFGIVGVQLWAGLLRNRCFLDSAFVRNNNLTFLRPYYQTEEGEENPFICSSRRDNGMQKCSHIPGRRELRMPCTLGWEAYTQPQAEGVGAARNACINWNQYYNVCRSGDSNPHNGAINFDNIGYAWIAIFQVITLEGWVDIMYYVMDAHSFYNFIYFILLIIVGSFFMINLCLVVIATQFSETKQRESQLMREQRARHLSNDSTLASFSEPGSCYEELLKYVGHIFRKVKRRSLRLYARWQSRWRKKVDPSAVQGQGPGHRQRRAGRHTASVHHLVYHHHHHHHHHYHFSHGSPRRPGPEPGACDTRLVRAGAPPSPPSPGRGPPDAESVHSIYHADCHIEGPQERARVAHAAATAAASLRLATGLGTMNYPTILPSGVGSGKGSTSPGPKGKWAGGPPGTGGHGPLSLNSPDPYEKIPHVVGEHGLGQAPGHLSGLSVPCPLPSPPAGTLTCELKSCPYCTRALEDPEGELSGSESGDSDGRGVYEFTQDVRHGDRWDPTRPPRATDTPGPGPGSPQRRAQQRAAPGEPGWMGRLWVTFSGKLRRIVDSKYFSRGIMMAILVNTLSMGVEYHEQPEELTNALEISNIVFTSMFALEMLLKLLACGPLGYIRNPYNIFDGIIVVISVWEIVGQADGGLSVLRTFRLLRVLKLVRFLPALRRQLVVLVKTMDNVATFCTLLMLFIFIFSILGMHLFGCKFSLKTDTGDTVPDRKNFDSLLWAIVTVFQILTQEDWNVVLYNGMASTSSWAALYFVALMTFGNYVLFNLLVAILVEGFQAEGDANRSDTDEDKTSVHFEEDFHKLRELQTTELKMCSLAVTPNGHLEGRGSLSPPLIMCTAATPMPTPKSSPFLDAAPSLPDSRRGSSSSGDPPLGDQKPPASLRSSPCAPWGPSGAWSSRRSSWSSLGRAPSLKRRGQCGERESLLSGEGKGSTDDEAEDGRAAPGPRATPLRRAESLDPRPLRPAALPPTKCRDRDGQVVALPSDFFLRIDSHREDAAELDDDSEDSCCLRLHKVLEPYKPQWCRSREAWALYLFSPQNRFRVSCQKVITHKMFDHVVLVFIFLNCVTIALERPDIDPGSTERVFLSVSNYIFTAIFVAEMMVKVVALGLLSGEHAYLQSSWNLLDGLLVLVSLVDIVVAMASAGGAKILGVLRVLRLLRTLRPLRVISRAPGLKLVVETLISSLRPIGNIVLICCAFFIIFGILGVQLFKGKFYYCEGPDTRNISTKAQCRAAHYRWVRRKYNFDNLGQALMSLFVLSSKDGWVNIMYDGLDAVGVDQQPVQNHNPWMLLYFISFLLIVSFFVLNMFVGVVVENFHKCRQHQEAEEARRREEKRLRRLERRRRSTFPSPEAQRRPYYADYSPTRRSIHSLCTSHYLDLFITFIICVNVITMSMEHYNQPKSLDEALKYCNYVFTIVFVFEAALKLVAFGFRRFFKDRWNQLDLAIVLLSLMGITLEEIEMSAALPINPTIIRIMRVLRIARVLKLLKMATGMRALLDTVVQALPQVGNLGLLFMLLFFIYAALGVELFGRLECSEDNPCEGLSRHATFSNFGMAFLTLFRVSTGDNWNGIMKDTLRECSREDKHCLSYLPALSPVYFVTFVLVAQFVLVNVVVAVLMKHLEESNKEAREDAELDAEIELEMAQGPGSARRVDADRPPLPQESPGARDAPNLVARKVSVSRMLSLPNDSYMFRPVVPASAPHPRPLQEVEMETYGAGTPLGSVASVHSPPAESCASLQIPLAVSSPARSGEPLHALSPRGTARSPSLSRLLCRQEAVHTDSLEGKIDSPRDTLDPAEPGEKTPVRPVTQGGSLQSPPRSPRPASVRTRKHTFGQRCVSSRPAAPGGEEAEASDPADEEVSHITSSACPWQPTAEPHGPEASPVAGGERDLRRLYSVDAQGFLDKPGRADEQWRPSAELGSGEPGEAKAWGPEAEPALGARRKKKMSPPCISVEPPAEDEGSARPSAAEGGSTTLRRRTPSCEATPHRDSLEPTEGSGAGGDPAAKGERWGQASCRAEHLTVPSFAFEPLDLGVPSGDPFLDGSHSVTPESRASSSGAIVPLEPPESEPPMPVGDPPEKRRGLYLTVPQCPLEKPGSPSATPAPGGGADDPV
# [23] = molecular target: Hexokinase (Trypanosoma brucei, UniProt Q38C41); test: Confirmation assay for inhibitors of Trypanosoma brucei hexokinase 1-Analogue-first series. [Related pubchem assays (depositor defined):AID1430, AID1632, AID2516, AID2560, AID2579, AID2600, AID449725, AID492951]; type: functional
# [24] = molecular target: Alkaline phosphatase, placental type (Homo sapiens, UniProt P05187); test: PLAP enzyme inhibitors, confirmation, biochemical, luminescence (AID 1512); type: functional
# Chain of Alkaline phosphatase, placental type (P05187 whole entry): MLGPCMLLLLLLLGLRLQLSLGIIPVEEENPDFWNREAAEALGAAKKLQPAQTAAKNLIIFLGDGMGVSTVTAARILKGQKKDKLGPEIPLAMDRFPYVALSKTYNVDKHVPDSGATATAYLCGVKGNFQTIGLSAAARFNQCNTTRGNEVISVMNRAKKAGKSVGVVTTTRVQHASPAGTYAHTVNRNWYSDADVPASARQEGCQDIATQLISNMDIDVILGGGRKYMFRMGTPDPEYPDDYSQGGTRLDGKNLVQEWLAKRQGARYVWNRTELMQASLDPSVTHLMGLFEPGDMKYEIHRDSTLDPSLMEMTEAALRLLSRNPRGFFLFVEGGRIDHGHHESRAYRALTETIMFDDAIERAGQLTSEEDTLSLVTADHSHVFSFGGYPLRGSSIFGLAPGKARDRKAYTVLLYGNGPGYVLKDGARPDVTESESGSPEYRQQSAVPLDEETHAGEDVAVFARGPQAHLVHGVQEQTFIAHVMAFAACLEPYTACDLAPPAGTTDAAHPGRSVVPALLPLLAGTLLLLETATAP
# [25] = molecular target: T8, Alkaline phosphatase, tissue-nonspecific isozyme (Homo sapiens, UniProt P05186); test: human TNAP enzyme inhibitors, SAR follow-up, biochemical, luminescent, dose response (AID 1056)
# T8 sequence (P05186 whole entry): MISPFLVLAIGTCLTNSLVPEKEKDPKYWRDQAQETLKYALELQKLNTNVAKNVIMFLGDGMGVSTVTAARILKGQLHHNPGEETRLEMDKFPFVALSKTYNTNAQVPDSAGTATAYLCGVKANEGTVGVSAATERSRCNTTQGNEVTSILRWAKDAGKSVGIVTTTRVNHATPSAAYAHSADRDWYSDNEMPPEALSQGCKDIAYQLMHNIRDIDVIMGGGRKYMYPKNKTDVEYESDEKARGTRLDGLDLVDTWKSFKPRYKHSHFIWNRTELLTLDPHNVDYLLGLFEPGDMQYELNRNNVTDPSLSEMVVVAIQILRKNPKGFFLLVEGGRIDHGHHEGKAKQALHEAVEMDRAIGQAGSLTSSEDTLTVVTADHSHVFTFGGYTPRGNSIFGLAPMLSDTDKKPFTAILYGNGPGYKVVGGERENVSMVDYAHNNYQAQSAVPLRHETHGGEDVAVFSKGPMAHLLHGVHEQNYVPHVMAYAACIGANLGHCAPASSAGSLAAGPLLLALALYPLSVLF
smiles,measurement,setting,value
CCN(CC)C(=O)C1CCCN(C(=O)Nc2ccc3nsnc3c2)C1 (stereo unspecified),IC50,[1],12 µM (active)
same,IC50,[2],> 50 µM (not active)
Cc1cccn2c(=O)c(/C=C(\C#N)C(=O)NCc3ccco3)c(N3CCCC(C)C3)nc12 (stereo unspecified),IC50,[3],> 100 µM (inactive)
same,IC50,[4],> 100 µM (inactive)
COc1ccc(-c2cc3c(=O)n(CC(=O)Nc4ccc(C(C)=O)cc4)ncn3n2)cc1,IC50,[5],7.89 µM (active)
same,IC50,[6],> 50 µM (inactive)
CCC(=O)Nc1c(S(=O)(=O)c2ccccc2)c2nc3ccccc3nc2n1Cc1ccccc1,IC50,[3],> 100 µM (inactive)
same,IC50,[4],4.74 µM (active)
COc1ccc(-c2ccc3oc(-c4ccc(OC)cc4)c(C#CCO)c3c2)cc1,IC50,[7],> 47.1 µM (inactive)
same,IC50,[8],> 80 µM (inactive)
same,EC50,[9],> 150 µM (not active)
same,IC50,[10],3.38 µM (active)
same,EC50,[11],> 150 µM (not active)
same,EC50,[12],> 53 µM (inactive)
same,EC50,[13],> 150 µM (not active)
CCn1cc(/C=C(\NC(=O)c2ccccc2)C(=O)N2CCOCC2)c2ccccc21,AC50,[14],5.85 µM (active)
same,AC50,[15],23.6 µM (active)
CC(C)(C=O)C1=CC(=O)c2ccccc2C1=O,EC50,[16],4.68 µM (active)
same,EC50,[17],4.58 µM (active)
same,IC50,[18],27.9 µM (inactive)
same,IC50,[19],11.5 µM (inactive)
same,IC50,[20],1.23 µM (active)
c1ccc(-n2cccc2)c(N2CCCCC2)c1,IC50,[21],> 50 µM (inactive)
O=C(COc1ccccc1Cl)Nc1nnc(-c2ccc3c(c2)OCCO3)o1,EC50,[22],3.1 µM (active)
O=C(COc1ccccc1F)Nc1nnc(-c2ccc3c(c2)CCCC3)o1,EC50,[22],1.7 µM (active)
COc1ccc(C(=O)Nc2cccc(Cl)c2)cc1,IC50,[23],> 25 µM (inactive)
CCCCN1C(=O)/C(=N\Nc2ccccc2Cl)c2ccccc21,IC50,[24],91.6 µM (active)
same,IC50,[25],> 100 µM (inactive)
C/C(Cc1ccccc1)=N\NC(=O)CNC(=O)c1ccc(Cl)cc1Cl,IC50,[21],> 50 µM (inactive)
O=C(CSc1nc2ccccc2[nH]1)c1ccc(O)c(O)c1,IC50,[24],4.79 µM (active)
same,IC50,[25],5.44 µM (active)
